≈ marks a conversion by molar mass, not a printed value. Where two headings read alike, the source gives them in different places. Each block holds one compound with its values, some of them ahead of it.
Legend:
[1] = cited from earlier work
[2] = Table 8, cited from earlier work; for pKa: first value where several are printed
[3] = Pharmacokinetics of tacrolimus encapsulated in E100, sublingual cross-over, rats (2022NCM003); format: in vivo, Sprague Dawley rats; conditions: 5 mg per kg
Experimental: The pharmacokinetic profile of three different nanoparticular formulations of Tacrolimus after sublingual administration in five naïve male Sprague Dawley rats with 14 days wash-out interval was evaluated. To eliminate the inter-individual variability, the same animals were administered in an intra-individual three-way cross-over after washout period. The animals were housed in a separate temperature-controlled room (20-24° C.) and maintained in a 12 h light/12 h dark cycle. Food and water were available ad libitum throughout the duration of the study.
Formulations were freshly prepared on the day of application using the procedure described herein and administered freshly after arrival.
Dose (and applied volume of the nanosuspension) was adjusted individually to the body weight of the animal.
Test item formulations were administered sublingual to 5 animals with […] wash-out intervals at a dose of 5 mg per kg body weight. Application procedure and blood sampling was as described before.
Tacrolimus whole blood concentrations were analysed by LC-MS/MS and Cmax, tmax, and AUC were calculated.
Preparation of working solutions for calibration standards and quality controls Individual stock solutions were used for preparation of calibration standards and quality control samples (QCs).
All samples were kept on ice until the addition of the precipitation reagent. […]

[4] = Pharmacokinetics of sirolimus encapsulated in E100, sublingual, rats (2022NCM001); format: in vivo, Sprague Dawley rats; conditions: 5 mg per kg
Experimental: Naïve, adult male Sprague Dawley rats of around 300 g body weight were housed in a separate temperature-controlled room (20-24° C.) and maintained in a 12 h light/12 h dark cycle. Food and water were available ad libitum throughout the duration of the study.
Formulation was freshly prepared on the day of application. It was administered sublingually to each animal at a dose of 5 mg per kg body weight.
For sublingual administration, rats were shortly anaesthetized with isoflurane. Prior to application, the sublingual area was blotted dry with cotton swabs. The appropriate volume of the formulation was applied under the tongue with a pipette. The animals were kept in a sitting position for 5 minutes. After 5 minutes the area under the tongue was blotted dry again to avoid oral administration of the remaining suspension. Then the animals were placed into the cage until recovery.
Blood samples were collected by puncture of the lateral tail vein at the following time points: predose, 15 min, 30 min, 1 h, 2 h, 4 h, 8 h and 24 h post dose. At each of the designated time points 20 μl blood was collected from the tail vein into K3-EDTA capillaries (Minivette POCT, […]). The blood samples were transferred into polypropylene tubes and frozen on dry ice within 1-2 min. of sampling and stored at −20° C. until LC-MS analysis. […]

[5] = Saturation solubility of sirolimus in selected solvents; format: physicochemical; conditions: thermodynamic from solid, room temperature, HPLC of supernatant
Experimental: One task is the production of a highly concentrated dispersion. The prerequisite for this is the use of a solvent for the production of the dispersion in which the active substance has a high solubility. […] Crystalline active ingredient was added to a defined amount of solvent at room temperature while stirring until an insoluble sediment was formed.

[6] = Pharmacokinetics of two sirolimus E100 nanoformulations, sublingual cross-over, rats (2022NCM002); format: in vivo; conditions: two nanoparticular formulations (FLM04_025, FLM02_b230)
Experimental: To eliminate the inter-individual variability, the same animals were administered in an intra-individual two-way cross-over after an appropriate washout period.
Two different approaches were followed in that a surfactant was included either during precipitation (FLM04_025) or after precipitation (FLM02_b230) as shown in FIG. 32.
Formulations were freshly prepared on the day of application using the procedure as described herein.
Test item formulations were administered sublingual to animals with 7 days wash-out intervals at a […] per kg body weight. Application procedure, blood sampling and their as quantification was as described before.

[7] = nanoparticular dispersion based on Eudragit E100, rats

Structure (SMILES): CCC(C)n1ncn(-c2ccc(N3CCN(c4ccc(OCC5COC(Cn6cncn6)(c6ccc(Cl)cc6Cl)O5)cc4)CC3)cc2)c1=O (stereo not drawn) [Itraconazole]
Log P [1]: 5.66 | Water solubility [1]: 0.0096 mg/mL

Structure (SMILES): O=C(O)CC(O)C(=O)O (stereo not drawn) [Malic acid]
Water solubility [2]: 218 mg/mL | pKa [2]: 3.2

Structure (SMILES): CCCCCCCC(=O)O [Octanoic Acid]
pKa [2]: 5.19

Structure (SMILES): CCCCCCCC/C=C\CCCCCCCC(=O)O [Oleic Acid]
Water solubility [2]: 0.0001 mg/mL

Structure (SMILES): CCCCCCCCCCCCCCCCCC(=O)O [Stearic Acid]
pKa [2]: 4.95

detection in blood after sublingual administration [3, 7]: detected in the blood of all rats | time of maximum concentration (t_max) ([3]; nanoparticular dispersion based on Eudragit E100, whole blood, rats): 30 min
Structure (SMILES): C=CC[C@@H]1/C=C(\C)C[C@H](C)C[C@H](OC)[C@H]2O[C@@](O)(C(=O)C(=O)N3CCCC[C@H]3C(=O)O[C@H](/C(C)=C/[C@@H]3CC[C@@H](O)[C@H](OC)C3)[C@H](C)[C@@H](O)CC1=O)[C@H](C)C[C@@H]2OC [Tacrolimus]
Log P [1]: 4.5

Structure (SMILES): CCCCC(=O)O [Valeric acid]
Water solubility [2]: 40 mg/mL | pKa [2]: 5.01

time of maximum concentration (t_max) ([4]; 5 min application, nanoparticular dispersion based on Eudragit E100, blood, rats): 30 min | detection in blood after sublingual administration [4, 7]: detected in the blood of all rats | solubility ([5]; acetone, organic solvent or mixture, saturation solubility in Acetone (polar aprotic)): ≥ 200 mg/mL | solubility ([5]; ethanol, organic solvent or mixture, saturation solubility in Ethanol (polar protic)): 179 mg/mL (≈ 196 mM) | solubility ([5]; iso-propanol, organic solvent or mixture, saturation solubility in iso-Propanol (polar protic)): 25 mg/mL (≈ 27.3 mM) | solubility ([5]; methanol, organic solvent or mixture, saturation solubility in Methanol (polar protic)): 246 mg/mL (≈ 269 mM) | solubility ([5]; water, saturation solubility in Water (polar protic)): ~0.001 mg/mL (≈ 0.00109 mM) | detection in blood after sublingual administration [6]: detected in the blood of all rats
Structure (SMILES): CO[C@H]1C[C@@H]2CC[C@@H](C)[C@@](O)(O2)C(=O)C(=O)N2CCCC[C@H]2C(=O)O[C@H]([C@H](C)C[C@@H]2CC[C@@H](O)[C@H](OC)C2)CC(=O)[C@H](C)/C=C(\C)[C@@H](O)[C@@H](OC)C(=O)[C@H](C)C[C@H](C)/C=C/C=C/C=C/1C [sirolimus]
Log P [1]: 4.56
